According to PMC10396955, “2-Oxabicyclo[2.1.1]hexanes as saturated bioisosteres of the ortho-substituted phenyl ring” (Nature Chemistry, 2023):
Values after ≈ are worked out from the molar mass of the structure shown. Read-outs that look alike come from different tables or passages of the source.

Experiments:
[1] = physchem; assay type: physicochemical; details: for D (partition ratio), incubation 1 / D (partition ratio), incubation 2 / D (partition ratio), incubation 3: Table S2, n-octanol/PBS pH 7.4
Description: Determination of Distribution Coefficient (LogD, pH 7.4) […]
n-octanol – phosphate buffered saline (PBS), pH 7.4. Distribution coefficient (or LogD) is a […]
Phosphate buffered saline, tablet (Sigma-Aldrich, USA; Cat # P4417)
Acetic acid (Enamine, Ukraine.)
DMSO stock solutions of the test compounds 10mM
Gradient HPLC system (Shimadzu, Japan)
MTR22 Multi Mix Rotator (UNICO, USA)
Laboratory Centrifuge, Sigma 4-15C, Qiagen (SIGMA GmbH, Germany) […]
allowed to mix in a rotator for 1 h at 30 rpm. Phase separation was assured by centrifugation for […]
dilution. The samples (both phases) were analyzed using a HPLC system coupled with a tandem mass spectrometer. Mebendazole was used as a reference compound. […]
where: SO – peak area of the analyte in octanol phase
S P – peak area of the analyte in PBS buffer do – dilution coefficient for octanol phase dp – dilution coefficient for aqueous phase

[2] = Kinetic solubility in phosphate-buffered saline, pH 7.4; assay type: physicochemical; details: phosphate-buffered saline, 25 °C, pH 7.4, aqueous buffer, kinetic from dmso stock
Description: Analysis of Aqueous Solubility […]
compound (Ondansetron) were assessed for kinetic solubility in phosphate-buffered saline, pH […]
Phosphate buffered saline, pH 7.4 (Sigma-Aldrich, USA; Cat #P3813) […]
MultiScreen HTS 96 Well Filter Plates (Millipore, Ireland; Cat # MSGVS2210) […]
Matrix Multichannel Electronic Pipette 2-125 µL, 5-250 µL, 15-1250 µL (Thermo Scientific, […]
Vacuum pump (Millipore, USA; Model # XX5500000)
The measurements were performed using SpectraMax Plus reader in UV-Vis mode. Acquisition and analysis of the data were performed using SoftMax Pro v.5.4 (Molecular Devices) and Excel […]
Kinetic solubility assay was performed according to the Enamine’s aqueous solubility SOP.
Briefly, using a 20 mM stock solution of the compound in 100% DMSO dilutions were prepared to a theoretical concentration of 400 μM in duplicates in phosphate-buffered saline pH 7.4 […]
for two hours and then filtered through HTS filter plates using a vacuum manifold. The filtrates of test compounds were diluted 2-fold with acetonitrile with 2% DMSO before measuring.
In parallel, compound dilutions in acetonitrile/PBS (1:1) were prepared to theoretical […]
DMSO to generate calibration curves. Ondansetron was used as reference compound to control proper assay performance. 200 μl of each sample was transferred to 96-well plate and measured in 200-550 nm range with 5 nm step.
The concentrations of compounds in PBS filtrate are calculated using a dedicated Microsoft Excel calculation script. Proper absorbance wavelengths for calculations are selected for each compound manually based on absorbance maximums (absolute absorbance unit values for the minimum and maximum concentration points within 0 – 3 OD range). Each of the final datasets is additionally visually evaluated by the operator and goodness of fit (R2) is calculated for each calibration curve. The effective range of this assay is approximately 2-400 μM and the […]

[3] = test system: human liver microsomes; assay: Metabolic stability in human liver microsomes; assay type: in vitro ADME
Description: (§1) The data acquisition and system control was performed using Analyst 1.6.3 software from AB Sciex. Methods Microsomal incubations were carried out in 96-well plates in 5 aliquots of 30 μL each (one for each time point). […] In the control reactions the NADPH-cofactor system was substituted with phosphate buffer. […] Each reaction was performed in duplicates. Five time points over 40 minutes were analyzed. The reactions were stopped by adding 4 volumes of methanol containing internal standard to incubation aliquots, followed by protein sedimentation by centrifuging at 5500 rpm for 4 minutes. […]. Supernatants were analyzed using the HPLC system coupled with tandem mass spectrometer. […] In some cases, the last time point is excluded from the calculations to ensure acceptable logarithmic linearity of decay.

[4] = Metabolic stability in human liver microsomes; assay type: in vitro ADME; details: both sexes; for half-life at 2 µM: read-out: t1/2; for k el at 2 µM: elimination constant, read-out: kel (converted)
Description: as §1

[5] = Chemical stability of carboxylic acids (acid, base, storage); assay type: physicochemical; details: room temperature, one day
Text: We also checked the chemical stability of three representative carboxylic acids, 1b, 19b and 22b (Table 2), because we suspected that some of them could decompose via a retro-Michael-type reaction. […] All products were crystalline solids, and we stored all of them in closed vials at room temperature on the shelf.

[6] = pH 7.4, LogD, pH 7.4, incubation 1
[7] = pH 7.4, LogD, pH 7.4, incubation 2
[8] = pH 7.4, LogD, pH 7.4, incubation 3
[9] = Table S1, incubation 1, read-out: PBS solubility, pH 7.4, Incubation 1
[10] = Table S1, incubation 2, read-out: PBS solubility, pH 7.4, Incubation 2
[11] = Table S1, mean of 2 incubations, 2 h, 2% DMSO, effective range approx. 2-400 μM, read-out: PBS solubility, pH 7.4, Mean
[12] = experimental kinetic solubility in phosphate-buffered saline at pH 7.4, Fig. 3, read-out: Solubility
[13] = human, liver microsomes, pH 7.4, human liver microsomes, 2 μM, 37 °C, with NADPH, 7 min
[14] = human, liver microsomes, pH 7.4, human liver microsomes, 2 μM, 37 °C, with NADPH, 15 min
[15] = human, liver microsomes, pH 7.4, human liver microsomes, 2 μM, 37 °C, with NADPH, read-out: % Remaining, Mean of 2
[16] = pH 7.4, human liver microsomes, no NADPH cofactor, ** instability partially or completely not determined by CYP450 activity, read-out: % Remaining without cofactor, Mean of 2
[17] = human, liver microsomes, pH 7.4, human liver microsomes, 0.42 mg protein per ml, Table S3, * approximate due to high stability, read-out: Clint
[18] = human, liver microsomes, pH 7.4, human liver microsomes, * approximate due to high stability
[19] = pH 7.4, human liver microsomes, * approximate due to high stability
[20] = human, liver microsomes, pH 7.4, human liver microsomes, Fig. 3, read-out: CIint, intrinsic clearance

Structure (SMILES)	D (partition ratio), incubation 1 [1]	D (partition ratio), incubation 2 [1]	D (partition ratio), incubation 3 [1]	logD at 1 h ([1]; pH 7.4, LogD, pH 7.4 (mean))	logD at 1 h [1, 6]	logD at 1 h [1, 7]	logD at 1 h [1, 8]	logD at 1 h ([1]; pH 7.4, logD (7.4))	solubility at 2 h [2, 9] [µM]	solubility at 2 h [2, 10] [µM]	solubility at 2 h [2, 11] [µM]	solubility at 2 h [2, 12] [µM]	remaining at […], 2 µM [4, 13] [%]	remaining at […], 2 µM [4, 14] [%]	remaining at 25 min, 2 µM [4, 15] [%]	remaining at 40 min, 2 µM [4, 15] [%]	remaining at 40 min, 2 µM [4, 16] [%]	microsomal CLint at 2 µM [4, 17] [µL/min/mg]	half-life at 2 µM [4, 18] [min]	k el at 2 µM [4, 19] [s⁻¹]	also measured
O=C(O)[C@@H]1[C@@H]2CC[C@@]1(C(=O)Nc1ccc(S(=O)(=O)Nc3nccs3)cc1)C2 (relative stereo) [Compound 32]	8.13E-02	3.23E-02	2.75E-02	< 1	< 1	< 1	< 1	< 1	151 (≈ 61.5 µg/mL)	164 (≈ 66.8 µg/mL)	158 (≈ 64.4 µg/mL)	101 (≈ 41.2 µg/mL)	97	97	99	100	89	–	–	–	metabolic stability (in words) ([3]; human liver microsomes): metabolically stable
O=C(NC1CCN(CCCCC2(C(=O)NCC(F)(F)F)c3ccccc3-c3ccccc32)CC1)[C@@H]1[C@@H]2CC[C@@]1(c1ccc(C(F)(F)F)cc1)C2 (relative stereo) [Compound 34]	3.53E+08	3.40E+06	1.71E+05	> 4.5	> 4.5	> 4.5	> 4.5	> 4.5	2 (≈ 1.4 µg/mL)	2 (≈ 1.4 µg/mL)	2 (≈ 1.4 µg/mL)	2 ± 0.2 (≈ 1.4 µg/mL)	76	41	21	8	91	157	10.6	0.00108	CIint, intrinsic clearance ([3]; human liver microsomes): 157 µL/min/mg
O=C(NC1CCN(CCCCC2(C(=O)NCC(F)(F)F)c3ccccc3-c3ccccc32)CC1)[C@@H]1[C@H]2C[C@]1(c1ccc(C(F)(F)F)cc1)CO2 (relative stereo) [Compound 35]	1.46E+05	1.62E+05	8.88E+04	> 4.5	> 4.5	> 4.5	> 4.5	> 4.5	2 (≈ 1.4 µg/mL)	4 (≈ 2.8 µg/mL)	3 (≈ 2.1 µg/mL)	–	102	77	36	29	84	87	19.2	0.0006	CIint, intrinsic clearance ([3]; human liver microsomes): 87 µL/min/mg
O=C(O)C1C2CC1(c1ccccc1)CO2 (centres unmarked) [Compound 1b]	–	–	–	–	–	–	–	–	–	–	–	–	–	–	–	–	–	–	–	–	chemical stability ([5]; aqueous 1 M hydrochloric acid): did not lead to any decomposition; chemical stability ([5]; aqueous 1 M sodium hydroxide): did not lead to any decomposition
O=C(O)C1C2CC1(C(=O)Nc1ccc(S(=O)(=O)Nc3nccs3)cc1)CO2 (centres unmarked) [Compound 33]	2.39E-01	1.93E-02	5.50E-01	-0.87	-0.62	-1.72	-0.26	< 1	100 (≈ 40.9 µg/mL)	102 (≈ 41.8 µg/mL)	101 (≈ 41.4 µg/mL)	158 (≈ 64.7 µg/mL)	111	111	109	106	92	~1	~1190	–	metabolic stability (in words) ([3]; human liver microsomes): metabolically stable; microsomal CLint at 2 µM [4, 20]: 1 µL/min/mg
O=C(O)Cc1ccccc1Nc1c(Cl)cccc1Cl [Diclofenac, reference compound]	–	–	–	–	–	–	–	–	–	–	–	–	–	–	–	–	–	–	–	–	kel ([3]; both, human, 2 µM, pH 7.4): 0.115 min⁻¹; Clint ([3]; both, human, microsomes, 2 µM, pH 7.4): 276 µL/min/mg; % Remaining, Mean of 2 ([3]; both, human, microsomes, 25 min, 2 µM, pH 7.4): 8%
O=C(NC1CCN(CCCCC2(C(=O)NCC(F)(F)F)c3ccccc3-c3ccccc32)CC1)c1ccccc1-c1ccc(C(F)(F)F)cc1 [Lomitapide, reference compound]	5.98E+08	3.42E+05	6.79E+04	> 4.5	> 4.5	> 4.5	> 4.5	> 4.5	3 (≈ 2.08 µg/mL)	3 (≈ 2.08 µg/mL)	3 (≈ 2.08 µg/mL)	3 ± 0.1 (≈ 2.08 µg/mL)	97	89	49	46	88	55	30.4	0.000383	CIint, intrinsic clearance ([3]; human liver microsomes): 55 µL/min/mg
COC(=O)Nc1nc2ccc(C(=O)c3ccccc3)cc2[nH]1 [Mebendazole, reference compound]	1.27E+03	1.32E+03	1.33E+03	3.12	3.1	3.12	3.12	–	–	–	–	–	–	–	–	–	–	–	–	–	–
O=C(O)c1ccccc1C(=O)Nc1ccc(S(=O)(=O)Nc2nccs2)cc1 [Phthalylsulfathiazole, reference compound]	2.09E-01	8.99E-02	4.17E-02	-1.04	-0.68	-1.05	-1.38	< 1	169 (≈ 68.2 µg/mL)	171 (≈ 69 µg/mL)	–	170 (≈ 68.6 µg/mL)	97	101	101	96	124	~2	~960	~1.67e-05	metabolic stability (in words) ([3]; human, microsomes): metabolically stable; microsomal CLint at 2 µM [4, 20]: 2 µL/min/mg
